Data as given in US6656931B2, “Vasopressin antagonist and diuretic combination” (Wyeth Holdings Corporation, priority 1999, dated 2003).
Read-outs that look alike come from different tables or passages of the source. Values belong to the compound of their own block, whether it stands above or below them.

What was measured:
[1] = Human single dose crossover drug interaction study, pharmacokinetics; assay type: in vivo
Procedure: (§1) The study lasted approximately 30 days, and included a pre-enrollment evaluation of up to 2 weeks before dose administration, and three 2-day (2-night) confinement periods. The doses were separated by at least a 1 week interval. The clinical portion of the study was completed in approximately 2 months.
(§2) The VPA-985 suspension (25 mg and 50 mg powder reconstituted) was administered in 150 mL of Sprite® brand lemon-lime soda (a product of The Coca-Cola Company) followed by 100 mL of room-temperature water (250 mL of fluid total).
(§3) Areas under concentration-time curves(AUCT) (AUC) and AUC truncated at the last observed concentration (CT)AUCT) were determined by using the linear/log trapezoidal method. Statistical comparisons were made using by an analysis of variance (ANOVA). Confidence limits (90%) for pharmacokinetic parameters were constructed on a log scale using the two one-sided tests procedure. An interaction was judged to be significant if a 35% difference was detected between either single agent and the two drugs administered concomitantly.

healthy men = assay: Human single dose crossover drug interaction study, pharmacodynamics (urine flow, electrolytes); assay type: in vivo; settings: for mean urine volume: 0 to 4 h interval, single oral doses VPA-985 75 mg; for mean urine volume / peak urine flow: furosemide 40 mg, or both; for peak urine flow: single oral doses: VPA-985 75 mg
Procedure: as §1, §2, §3

[2] = tested on: renal function in anesthetized rats; settings: for Na+ excretion / free water clearance / urine flow rate / urine osmolality: anesthetized rats; for glomerular filtration rate (GFR): rat, in vivo
Procedure: NaCl reabsorption in the thick ascending limb of the Loop of Henle (TALH) creates free water that is reabsorbed in the collecting duct in the presence of vasopressin. […] Either V (3 mg/kg), F (5 mg/kg), both V and F (V/F) or the vehicles were administered intraduodenally.

[3] = VPA-985 75 mg administered with furosemide 40 mg
[4] = after intraduodenal administration (V 3 mg/kg, F 5 mg/kg)
[5] = baseline, before compound administration
[6] = after coadministration with VPA-985 75 mg

AUCs of VPA-985, compared to VPA-985 alone [1, 3]: no differences
Cmax of VPA-985, compared to VPA-985 alone [1, 3]: no differences
AUC ([1]; male, human, in vivo, single oral dose VPA-985 75-mg suspension alone, healthy men): 968 ng·h/mL
Cmax ([1]; male, human, in vivo, single oral dose VPA-985 75-mg suspension alone, healthy men, read-out: mean peak concentration (Cmax) of VPA-985): 617 ng/mL
Tmax ([1]; male, human, in vivo, single oral dose VPA-985 75-mg suspension alone, healthy men, read-out: mean time of peak concentration (tmax) of VPA-985): < 1 h
effect on serum potassium (healthy men; single oral dose VPA-985 75 mg alone): did not alter
glomerular filtration rate (GFR) [2]: 2.04 ± 0.15 mL/min
SMILES: Cc1ccc(F)cc1C(=O)Nc1ccc(C(=O)N2Cc3cccn3Cc3ccccc32)c(Cl)c1 [VPA-985, N-[4-(5H-pyrrolo[2,1-c][1,4]benzodiazepin-10(11H)ylcarbonyl)-3-chlorophenyl]-5-fluoro-2-methyl-benzamide]
mean urine volume (healthy men): 1157 mL
increase in mean serum sodium (healthy men; 0 to 4 hours after the dose): 2 mmol/L
0 to 4 h urinary excretion of sodium, potassium, chloride and magnesium (healthy men; VPA-985 alone compared with VPA-985 and furosemide administered concomitantly): significantly less
tmax of peak effect in urine flow (healthy men; after administration of single doses, healthy men): approximately 1.5 h
peak urine flow (healthy men; healthy men): 8.4 mL/min
Na+ excretion [2, 4]: 0.67±0.34 μEq/min
free water clearance [2, 4]: -6.96 ± 5.17 µL/min
urine flow rate [2, 4]: 19.51 ± 3.80 µL/min
urine osmolality [2, 4]: 571±145 mOsm/kg
Na+ excretion [2, 5]: 0.10±0.02 μEq/min
free water clearance [2, 5]: -17.31 ± 1.84 µL/min
urine flow rate [2, 5]: 5.26 ± 1.13 µL/min
urine osmolality [2, 5]: 1456±166 mOsm/kg

CLr of furosemide, versus furosemide alone [1, 6]: no difference
amount of furosemide recovered from urine (Ut), versus furosemide alone [1, 6]: no difference
serum potassium (healthy men; at 0 h): 4.2 mmol/L
serum potassium (healthy men; at 4 hours after the dose): 3.9 mmol/L
glomerular filtration rate (GFR) [2]: 1.87 ± 0.15 mL/min
SMILES: NS(=O)(=O)c1cc(C(=O)O)c(NCc2ccco2)cc1Cl [furosemide, reference compound]
mean urine volume (healthy men): 1524 mL
peak urine flow (healthy men; healthy men): 9.3 mL/min
urine flow rate [2, 4]: 17.02 ± 4.86 µL/min
urine osmolality [2, 4]: 699±69 mOsm/kg
urine flow rate [2, 5]: 3.74 ± 0.18 µL/min
urine osmolality [2, 5]: 1515±96 mOsm/kg
